Measured values taken from patent US9340577B2, “HLA binding motifs and peptides and their uses” (priority 1992, dated 2016).
No end group written: not given here.

Assays:
Assay in all cases: biochemical
[1] = target: DRB1*1302 (Homo sapiens, UniProt P01903+P01911, A100E/A169T/K41T/L162R/M171V/P40S/Q125H/Q178H/Q39Y/Q99D/R42S/S66N/T262R/V115G/W38E/Y61H); type: binding
[2] = target: DRB1*1201 (Homo sapiens, UniProt P01903+P01911, A100R/A169T/D57E/D86V/F55L/H45Y/K41T/L162R/M171V/P40S/Q125H/Q178H/Q39Y/Q99D/R42G/S66L/T262R/V114A/V67L/W38E/Y59H/Y61H/Y89S); type: binding
[3] = target: DR1 (DRB1*0101) (Homo sapiens, UniProt P01903+P01911, A100R/D57E/F55L/F60I/F76Y/I96L/L162R/M171V/P40L/Q125E/R42F/V115G/Y59C); type: binding
[4] = target: DRB1*0802 (Homo sapiens, UniProt P01903+P01911, A100R/A103L/A169T/F76Y/H45Y/I96F/K41T/L162R/M171V/P40S/Q125H/Q178H/Q39Y/Q99D/R218S/R42G/S66Y/V115G/W38E); type: binding
[5] = target: DRB3*0101 (Homo sapiens, UniProt P01903+P79483); type: binding
[6] = target: DR7 (DRB1*0701) (Homo sapiens, UniProt P01903+P01911, A100R/A102G/A103Q/D57E/D86V/E43K/F76Y/K127E/L162R/M171V/P40G/Q125H/Q99D/R33Q/R42Y/R54Q/S133A/S66F/T210M/V115G/Y107V/Y59L/Y89S); type: binding
[7] = target: DRB1*1101 (Homo sapiens, UniProt P01903+P01911, A100R/A169T/A87E/I96F/K41T/L162R/M171V/P40S/Q125H/Q178H/Q39Y/Q99D/R42S/S66Y/T262R/V115G/W38E); details: Binding affinity DRB1 *1101
[8] = target: DRB5*0101 (Homo sapiens, UniProt P01903+Q30154); details: Binding affinity DRB5 *0101
[9] = target: DRB1*0901 (Homo sapiens, UniProt P01903+P01911, A100R/A103E/D57H/D86V/F55Y/F60I/F76Y/I96F/K127E/L162R/M171V/P40D/Q125H/Q99R/R33Q/R42F/S133A/S66N/T210M/V115G/W38K/Y107V/Y59G/Y89S); type: binding
[10] = target: DRB1*1501 (Homo sapiens, UniProt P01903+P01911); type: binding
[11] = target: DR4w4 (DRB1*0401) (Homo sapiens, UniProt P01903+P01911, A100K/A169T/F76Y/I96L/K127E/L162R/M171V/N62H/P40V/Q125Y/R42H/S133A/S149N/S66Y/V115G/V209L/W38E); type: binding

Chain of DRB1*1302 (P01903 26-254 limits assumed, other chains not shown): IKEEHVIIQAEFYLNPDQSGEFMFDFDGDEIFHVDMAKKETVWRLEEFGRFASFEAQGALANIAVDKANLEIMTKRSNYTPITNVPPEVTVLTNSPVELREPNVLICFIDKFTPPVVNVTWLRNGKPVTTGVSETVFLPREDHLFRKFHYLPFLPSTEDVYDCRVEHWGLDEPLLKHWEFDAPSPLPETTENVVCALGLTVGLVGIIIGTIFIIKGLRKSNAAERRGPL
Chain of DRB1*1101 (P01903 26-254 limits assumed, other chains not shown): as above

Compound	IC50 [1]	IC50 [2]	IC50 [3]	IC50 [4]	IC50 [5]	IC50 [6]	IC50 [7]	IC50 [8]	IC50 [9]	IC50 [10]	IC50 [11]
CC[C@H](C)[C@H](NC(=O)[C@@H]1CCCN1C(=O)[C@H](CC(=O)O)NC(=O)[C@@H](NC(=O)[C@@H]1CCCN1C(=O)[C@H](Cc1ccccc1)NC(=O)[C@@H](NC(=O)[C@H](CC(=O)O)NC(=O)[C@@H](NC(=O)[C@@H]1CCCN1C(=O)[C@H](CO)NC(=O)[C@@H](N)CCCNC(=N)N)[C@@H](C)CC)[C@@H](C)O)[C@@H](C)O)C(=O)N[C@@H](CCCCN)C(=O)N[C@@H](CCC(=O)O)C(=O)N[C@@H](CO)C(=O)O [Peptide 68.0026]	> 20 µM	> 20 µM	> 20 µM	> 20 µM	> 20 µM	> 20 µM	> 20 µM	> 20 µM			
CSCC[C@H](NC(=O)CNC(=O)[C@H](CC(C)C)NC(=O)[C@H](CCC(N)=O)NC(=O)[C@@H](NC(=O)[C@H](CC(C)C)NC(=O)[C@H](CCC(N)=O)NC(=O)CNC(=O)[C@@H](N)Cc1ccccc1)[C@@H](C)O)C(=O)N[C@@H](CCC(=O)O)C(=O)N[C@@H](CCC(N)=O)C(=O)N[C@@H](Cc1c[nH]cn1)C(=O)N[C@@H](Cc1ccc(O)cc1)C(=O)N[C@@H](CCC(=O)O)C(=O)N[C@@H](CC(C)C)C(=O)O [Peptide 68.0028]	> 20 µM	0.653 µM		> 20 µM	> 20 µM	> 20 µM	> 20 µM		> 20 µM	> 20 µM	
CC[C@H](C)[C@H](NC(=O)[C@@H]1CCCN1C(=O)[C@H](CCC(N)=O)NC(=O)[C@@H](N)Cc1c[nH]c2ccccc12)C(=O)N1CCC[C@H]1C(=O)N[C@H](C(=O)N[C@@H](Cc1c[nH]cn1)C(=O)N[C@H](C(=O)N[C@H](C(=O)N1CCC[C@H]1C(=O)N[C@@H](CC(C)C)C(=O)N[C@@H](CO)C(=O)N[C@@H](CCC(=O)O)C(=O)N[C@@H](CC(=O)O)C(=O)N[C@@H](CCC(N)=O)C(=O)O)C(C)C)[C@@H](C)O)C(C)C [Peptide 68.0039]		> 20 µM		> 20 µM	> 20 µM		> 20 µM	> 20 µM		> 20 µM	> 20 µM
CSCC[C@H](NC(=O)[C@H](CC(=O)O)NC(=O)[C@H](Cc1ccc(O)cc1)NC(=O)[C@H](CC(C)C)NC(=O)[C@@H]1CCCN1C(=O)[C@H](Cc1c[nH]cn1)NC(=O)[C@@H]1CCCN1)C(=O)N[C@@H](CO)C(=O)N[C@@H](CC(C)C)C(=O)N[C@@H](CC(C)C)C(=O)N[C@@H](CCCCN)C(=O)N[C@@H](CC(N)=O)C(=O)N[C@@H](CCCNC(=N)N)C(=O)N[C@@H](Cc1ccccc1)C(=O)N[C@@H](CC(C)C)C(=O)O [Peptide 68.0071]		0.487 µM		> 20 µM	> 20 µM		> 20 µM				> 20 µM
CC(C)C[C@H](NC(=O)[C@H](CCC(N)=O)NC(=O)[C@H](C)NC(=O)[C@H](CC(N)=O)NC(=O)[C@H](CCCCN)NC(=O)[C@@H](NC(=O)[C@H](CCCCN)NC(=O)[C@H](CC(N)=O)NC(=O)CN)C(C)C)C(=O)N[C@@H](C)C(=O)NCC(=O)N[C@@H](C)C(=O)N[C@@H](CCCCN)C(=O)NCC(=O)N[C@H](C(=O)O)C(C)C [Peptide 68.0097]	> 20 µM	> 20 µM		> 20 µM	> 20 µM	> 20 µM	> 20 µM			> 20 µM	
CC[C@H](C)[C@H](NC(=O)[C@@H]1CCCN1C(=O)[C@H](Cc1c[nH]cn1)NC(=O)[C@@H](NC(=O)[C@@H]1CCCN1C(=O)[C@@H](NC(=O)[C@H](CO)NC(=O)[C@@H]1CCCN1C(=O)[C@H](CC(C)C)NC(=O)CNC(=O)[C@@H](NC(=O)[C@H](C)NC(=O)[C@H](CCC(=O)O)NC(=O)[C@H](C)N)C(C)C)[C@@H](C)CC)C(C)C)C(=O)NCC(=O)O [Peptide 68.0101]		0.7 µM		> 20 µM	> 20 µM		> 20 µM	> 20 µM	> 20 µM		
CC[C@H](C)[C@H](N)C(=O)N[C@@H](Cc1ccc(O)cc1)C(=O)N[C@@H](CO)C(=O)N[C@H](C(=O)N[C@@H](CO)C(=O)N[C@@H](CCSC)C(=O)N[C@@H](CCCCN)C(=O)N[C@@H](Cc1c[nH]cn1)C(=O)N1CCC[C@H]1C(=O)N[C@@H](CCC(N)=O)C(=O)N[C@@H](CCC(=O)O)C(=O)N[C@@H](CCSC)C(=O)N[C@@H](CCCCN)C(=O)N[C@H](C(=O)N[C@@H](Cc1ccc(O)cc1)C(=O)O)[C@@H](C)O)[C@@H](C)CC [Peptide 68.0126]	> 20 µM	11.4 µM			> 20 µM						
CC[C@H](C)[C@H](NC(=O)[C@@H](NC(=O)[C@H](Cc1c[nH]cn1)NC(=O)[C@@H](N)CCCNC(=N)N)C(C)C)C(=O)N[C@@H](Cc1ccc(O)cc1)C(=O)N[C@@H](C)C(=O)N1CCC[C@H]1C(=O)N[C@@H](CO)C(=O)N[C@@H](CO)C(=O)N[C@@H](Cc1c[nH]cn1)C(=O)N[C@@H](CC(N)=O)C(=O)N[C@@H](CCCCN)C(=O)N[C@@H](Cc1ccc(O)cc1)C(=O)N[C@@H](C)C(=O)NCC(=O)O [Peptide 68.0133]		7.08 µM			> 20 µM	> 20 µM					
CC[C@H](C)[C@H](NC(=O)[C@@H](N)CCC(=O)O)C(=O)N[C@H](C(=O)N[C@@H](CC(C)C)C(=O)N[C@@H](Cc1c[nH]cn1)C(=O)N[C@@H](CC(C)C)C(=O)N[C@@H](CCC(=O)O)C(=O)N1CCC[C@H]1C(=O)N[C@@H](CCC(N)=O)C(=O)N[C@@H](CC(N)=O)C(=O)N[C@@H](CCC(=O)O)C(=O)N[C@@H](CC(C)C)C(=O)N[C@@H](CC(=O)O)C(=O)N1CCC[C@H]1C(=O)N[C@H](C(=O)O)C(C)C)C(C)C [Peptide 1543.20]		> 20 µM		> 20 µM	> 20 µM		> 20 µM	> 20 µM	> 20 µM	> 20 µM	
DFEVFFQRLGIASGR [Peptide 68.0114]		2 µM			> 20 µM	> 20 µM					
GNEIFNTSLFEPPPP [Peptide 68.0090]		> 20 µM	> 20 µM	> 20 µM	> 20 µM	> 20 µM	> 20 µM	> 20 µM		> 20 µM	
GQRVPVSHSFPHPLY [Peptide 68.0005]		5.51 µM		> 20 µM	> 20 µM		> 20 µM	> 20 µM			> 20 µM
GRAVCGGVLVHPQWV [Peptide 68.0062]		16.4 µM		> 20 µM	> 20 µM		> 20 µM				> 20 µM
KSRLQGGVLVNEILN [Peptide 68.0046]		9.6 µM		> 20 µM	> 20 µM		> 20 µM	> 20 µM		> 20 µM	> 20 µM
LSGLHGQDLFGIWSK [Peptide 68.0040]	> 20 µM	7.89 µM		> 20 µM	> 20 µM	> 20 µM	> 20 µM	> 20 µM	> 20 µM	> 20 µM	> 20 µM
PEEFLRPRSLQCVSL [Peptide 68.0015]		6.02 µM			> 20 µM			> 20 µM			> 20 µM
PHPLYNMSLLKHQSL [Peptide 68.0007]		0.86 µM			> 20 µM	> 20 µM					
QWVLTAAHCLKKNSQ [Peptide 68.0004]	> 20 µM	> 20 µM		> 20 µM	> 20 µM					> 20 µM	> 20 µM
TNKFSGYPLYHSVYE [Peptide 68.0116]	> 20 µM	4.48 µM			> 20 µM	> 20 µM	> 20 µM				
VILLGRHSLFHPEDT [Peptide 68.0068]		0.056 µM			> 20 µM	> 20 µM					
YDPLYCESVHNFTLP [Peptide 68.0041]	> 20 µM	> 20 µM		> 20 µM	> 20 µM		> 20 µM	> 20 µM			
